Read-outs that look alike come from different tables or passages of the source.
What was measured:
CEW (Helicoverpa zea) = assay: Bioassay on Corn Earworm (CEW), 128-well diet tray; assay type: in vivo; settings: for pest or weed control at 0.5 µg/cm2 / pest or weed control at 50 µg/cm2: Helicoverpa zea, 168 h; for pest or weed control at 0.5 µg/cm2: 0.5 μg/cm^2 on diet, read-out: Rating CEW (*Tested at 0.5 μg/cm^2); for pest or weed control at 50 µg/cm2: read-out: Rating CEW
Procedure: (§1) Certain molecules disclosed in this document were tested against BAW and CEW using procedures described in the following examples. In the reporting of the results, the “BAW & CEW Rating Table” was used (See Table Section).
Bioassays on CEW (Helicoverpa zea)
(§2) Trays were covered with a clear self-adhesive cover and held at 25° C., 14:10 light-dark for five to seven days. Percent mortality was recorded for the larvae in each well; activity in the eight wells was then averaged. The results are indicated in the table entitled “Table ABC: Biological Results” (See Table Section).

BAW (Spodoptera exigua) = assay: Bioassay on Beet Armyworm (BAW), 128-well diet tray; assay type: in vivo; settings: for pest or weed control at 50 µg/cm2: Spodoptera exigua, 168 h, read-out: Rating BAW
Procedure: as §1
Bioassays on BAW (Spodoptera exigua)
as §2

[1] = percent mortality, second instar larvae, five to seven days
[2] = percent mortality, second instar larvae, 50 μg/cm^2 on diet, five to seven days
[3] = percent mortality, second instar larvae, 12.5 μg/cm^2 on diet, five to seven days

## CC(C)c1c(F)cccc1N/C(S)=N/C(=O)Nc1ccc(-c2ncn(-c3ccc(OC(F)(F)F)cc3)n2)cc1 [Molecule A107]
CEW (Helicoverpa zea); [1]
  pest or weed control at 0.5 µg/cm2: 50 to 100%
BAW (Spodoptera exigua); [2]
  pest or weed control at 50 µg/cm2: 50 to 100%

## Cc1cc(C)c(N2/C(=N/C(=O)Nc3ccc(-c4ncn(-c5ccc(OC(F)(F)F)cc5)n4)cc3)SCC2C)c(C)c1 (stereo not drawn) [Molecule A40]
CEW (Helicoverpa zea); [3]
  Rating CEW (**Tested at 12.5 μg/cm^2): A** (50-100)
BAW (Spodoptera exigua); [3]
  Rating BAW (**Tested at 12.5 μg/cm^2): A** (50-100)

## Cc1cccc(C)c1N/C(=N/C(=O)Nc1ccc(-c2ncn(-c3ccc(C(F)(F)F)cc3)n2)cc1)SCOC(=O)CNC(=O)OCc1ccccc1 [Molecule A8, (Z)—((N-(2,6-Dimethylphenyl)-N′-((4-(1-(4-(trifluoromethyl)phenyl)-1H-1,2,4-triazol-3-yl)phenyl)carbamoyl)carbamimidoyl)thio)methyl 2-(((benzyloxy)carbonyl)amino)acetate]
CEW (Helicoverpa zea)
  pest or weed control at 50 µg/cm2: 50 to 100%
BAW (Spodoptera exigua)
  pest or weed control at 50 µg/cm2: 50 to 100%

## CCC(C)c1ccccc1N/C(=N\C(=O)Nc1ccc(-c2ncn(-c3ccc(OC(F)(F)F)cc3)n2)cc1)SCOC(=O)C(C)C (stereo not drawn) [Molecule A54]
CEW (Helicoverpa zea); [2]
  pest or weed control at 50 µg/cm2: 50 to 100%
BAW (Spodoptera exigua); [2]
  pest or weed control at 50 µg/cm2: 50 to 100%

## CCCc1ccccc1N/C(S)=N/C(=O)Nc1ccc(-c2ncn(-c3ccc(OC(F)(F)F)cc3)n2)cc1 [Molecule A64]
CEW (Helicoverpa zea); [1]
  pest or weed control at 0.5 µg/cm2: 50 to 100%
BAW (Spodoptera exigua); [2]
  pest or weed control at 50 µg/cm2: 50 to 100%

## COc1ccc(NC(NC(=O)Nc2ccc(-c3ncn(-c4ccc(OC(F)(F)F)cc4)n3)cc2)SCOC(=O)C(C)C)c(C)c1 (stereo not drawn) [Molecule A56]
CEW (Helicoverpa zea); [2]
  pest or weed control at 50 µg/cm2: 50 to 100%
BAW (Spodoptera exigua); [2]
  pest or weed control at 50 µg/cm2: 50 to 100%

## CCc1ccccc1N/C(=N\C(=O)Nc1ccc(-c2ncn(-c3ccc(OC(F)(F)F)cc3)n2)cc1)SCOC(=O)C(C)C [Molecule A57]
CEW (Helicoverpa zea); [2]
  pest or weed control at 50 µg/cm2: 50 to 100%
BAW (Spodoptera exigua); [2]
  pest or weed control at 50 µg/cm2: 50 to 100%

## CC(C)c1c(F)cccc1N1C(=O)CS/C1=N\C(=O)Nc1ccc(-c2ncn(-c3ccc(OC(F)(F)F)cc3)n2)cc1 [Molecule A109]
CEW (Helicoverpa zea); [1]
  pest or weed control at 0.5 µg/cm2: 50 to 100%
BAW (Spodoptera exigua); [2]
  pest or weed control at 50 µg/cm2: 50 to 100%

## CC(C)c1ccc(F)cc1N/C(S)=N/C(=O)Nc1ccc(-c2ncn(-c3ccc(OC(F)(F)F)cc3)n2)cc1 [Molecule A82]
CEW (Helicoverpa zea); [1]
  pest or weed control at 0.5 µg/cm2: 50 to 100%
BAW (Spodoptera exigua); [2]
  pest or weed control at 50 µg/cm2: 50 to 100%

## Cc1ccccc1N/C(=N\C(=O)Nc1ccc(-c2ncn(-c3ccc(OC(F)(F)F)cc3)n2)cc1)SCOC(=O)C(C)C [Molecule A60]
CEW (Helicoverpa zea); [2]
  pest or weed control at 50 µg/cm2: 50 to 100%
BAW (Spodoptera exigua); [2]
  pest or weed control at 50 µg/cm2: 50 to 100%

## O=C(/N=C(\S)Nc1ccccc1Cc1ccccc1)Nc1ccc(-c2ncn(-c3ccc(OC(F)(F)F)cc3)n2)cc1 [Molecule A101]
CEW (Helicoverpa zea); [1]
  pest or weed control at 0.5 µg/cm2: 50 to 100%
BAW (Spodoptera exigua); [2]
  pest or weed control at 50 µg/cm2: 50 to 100%

## CC(C)(C)c1ccccc1N/C(S)=N/C(=O)Nc1ccc(-c2ncn(-c3ccc(OC(F)(F)F)cc3)n2)cc1 [Molecule A67]
CEW (Helicoverpa zea); [1]
  pest or weed control at 0.5 µg/cm2: 50 to 100%
BAW (Spodoptera exigua); [2]
  pest or weed control at 50 µg/cm2: 50 to 100%

## CC(C)c1cc(F)ccc1N/C(S)=N/C(=O)Nc1ccc(-c2ncn(-c3ccc(OC(F)(F)F)cc3)n2)cc1 [Molecule A116]
CEW (Helicoverpa zea); [1]
  pest or weed control at 0.5 µg/cm2: 50 to 100%
BAW (Spodoptera exigua); [2]
  pest or weed control at 50 µg/cm2: 50 to 100%

## Cc1ccc(N/C(S)=N/C(=O)Nc2ccc(-c3ncn(-c4ccc(OC(F)(F)F)cc4)n3)cc2)c(Cl)c1 [Molecule A73]
CEW (Helicoverpa zea); [1]
  pest or weed control at 0.5 µg/cm2: 50 to 100%
BAW (Spodoptera exigua); [2]
  pest or weed control at 50 µg/cm2: 50 to 100%

## COc1ccc(N/C(S)=N/C(=O)Nc2ccc(-c3ncn(-c4ccc(OC(F)(F)F)cc4)n3)cc2)c(C)c1 [Molecule A98]
CEW (Helicoverpa zea); [1]
  pest or weed control at 0.5 µg/cm2: 50 to 100%
BAW (Spodoptera exigua); [2]
  pest or weed control at 50 µg/cm2: 50 to 100%

From patent US9440964B2, “Pesticidal compositions and processes related thereto” (Dow AgroSciences LLC, priority 2011, dated 2016)
